Experimental data published in patent US11299492B2, “JAK kinase inhibitor compounds for treatment of respiratory disease” (THERAVANCE BIOPHARMA R&D IP, LLC, priority 2015, dated 2022).

Columns and labels:
[1] = system: IL-13 induced STAT6 phosphorylation in BEAS-2B human lung epithelial cells; test: AlphaScreen JAK1 cellular potency assay (BEAS-2B); type: cell-based; conditions: for BEAS-2B pIC50: IL-13 induced STAT6 phosphorylation, BEAS-2B cells; for fold less potent than the corresponding compound of the invention in the BEAS-2B cellular assay: C-1 vs Ex 1, C-2 vs Ex 7, C-3 vs Ex 13, C-4 vs Ex 6
Experimental: The AlphaScreen JAK1 cellular potency assay was carried out by measuring interleukin-13 (IL-13, R&D Systems) induced STAT6 phosphorylation in BEAS-2B human lung epithelial cells (ATCC). The anti-STAT6 antibody (Cell Signaling Technologies) was conjugated to AlphaScreen acceptor beads (Perkin Elmer), while the anti-pSTAT6 (pTyr641) antibody (Cell Signaling Technologies) was biotinylated using EZ-Link Sulfo-NHS-Biotin (Thermo Scientific).
BEAS-2B cells were grown at 37° C. in a 5% CO2 humidified incubator in 50% DMEM/50% F-12 medium (Life Technologies) supplemented with 10% FBS (Hyclone), 100 U/mL penicillin, 100 μg/mL streptomycin (Life Technologies), and 2 mM GlutaMAX (Life Technologies). On day 1 of the assay, cells were seeded at a 7,500 cells/well density in white poly-D-lysine-coated 384-well plates (Corning) with 25 μL medium, and were allowed to adhere overnight in the incubator. On day 2 of the assay, the medium was removed and replaced with 12 L of assay buffer (Hank's Balanced Salt Solution/HBSS, 25 mM HEPES, and 1 mg/ml bovine serum albumin/BSA) containing dose-responses of test compounds. Compounds were serially diluted in DMSO and then diluted another 1000-fold in media to bring the final DMSO concentration to 0.1%. Cells were incubated with test compounds at 37° C. for 1 h, and followed by the addition of 12 μl of pre-warmed IL-13 (80 ng/ml in assay buffer) for stimulation. After incubating at 37° C. for 30 min, the assay buffer (containing compound and IL-13) was removed, and 10 μl of cell lysis buffer (25 mM HEPES, 0.1% SDS, 1% NP-40, 5 mM MgCl2, 1.3 mM EDTA, 1 mM EGTA, and supplement with Complete Ultra mini protease inhibitors and PhosSTOP from Roche Diagnostics). The plates were shaken at ambient temperature for 30 min before the addition of detection reagents. A mixture of biotin-anti-pSTAT6 and anti-STAT6 conjugated acceptor beads was added first and incubated at ambient temperature for 2 h, followed by the addition of streptavidin conjugated donor beads (Perkin Elmer). After a minimum of 2 h incubation, the assay plates were read on the EnVision plate reader.
Results were expressed as the negative logarithm of the IC50 value, pIC50.

[2] = system: IL-13 induced pSTAT6 induction in lung tissue; test: Murine model of IL-13 induced pSTAT6 induction in lung tissue; type: in vivo; conditions: mouse lung; for pSTAT6 inhibition in the pharmacodynamic assay: IL-13 challenge; for lung concentration smaller than that of the corresponding compound of the invention by a factor: pharmacodynamic assay, C-1 vs Ex 1, C-2 vs Ex 7, C-3 vs Ex 13, C-4 vs Ex 6
Experimental: I1-13 is an important cytokine underlying the pathophysiology of asthma (Kudlacz et al. Eur. J Pharmacol, 2008, 582, 154-161). IL-13 binds to cell surface receptors activating members of the Janus family of kinases (JAK) which then phosphorylate STAT6 and subsequently activates further transcription pathways. In the described model, a dose of IL-13 was delivered locally into the lungs of mice to induce the phosphorylation of STAT6 (pSTAT6) which is then measured as the endpoint.
Adult balb/c mice from Harlan were used in the assay. On the day of study, animals were lightly anesthetized with isoflurane and administered either vehicle or test compound (0.5 mg/mL, 50 μL total volume over several breaths) via oral aspiration. Animals were placed in lateral recumbency post dose and monitored for full recovery from anesthesia before being returned to their home cage. Four hours later, animals were once again briefly anesthetized and challenged with either vehicle or IL-13 ([…] total dose delivered, 50 μL total volume) via oral aspiration before being monitored for recovery from anesthesia and returned to their home cage. One hour after vehicle or IL-13 administration, lungs were collected for both pSTAT6 detection using an anti-pSTAT6 ELISA (rabbit mAb capture/coating antibody; mouse mAb detection/report antibody: anti-pSTAT6-pY641; secondary antibody: anti-mouse IgG-HRP) and analyzed for total drug concentration as described above in Assay 4.
Selected compounds of the invention were tested in the assay. Activity in the model is evidenced by a decrease in the level of pSTAT6 present in the lungs of treated animals at 5 hours compared to the vehicle treated, IL-13 challenged control animals. The difference between the control animals which were vehicle-treated, IL-13 challenged and the control animals which were vehicle-treated, vehicle challenged dictated the 0% and 100% inhibitory effect, respectively, in any given experiment.

[3] = Pharmacokinetics in plasma and lung in mouse; type: in vivo; conditions: oral aspiration, lung AUC (μg hr/g) / plasma AUC (μg hr/mL)
Experimental: Plasma and lung levels of test compounds and ratios thereof were determined in the following manner. BALB/c mice from Charles River Laboratories were used in the assay. Test compounds were individually formulated in 20% propylene glycol in pH 4 citrate buffer at a concentration of 0.2 mg/mL and 50 uL of the dosing solution was introduced into the trachea of a mouse by oral aspiration. At various time points (typically 0.167, 2, 6, 24 hr) post dosing, blood samples were removed via cardiac puncture and intact lungs were excised from the mice. Blood samples were centrifuged (Eppendorf centrifuge, 5804R) for 4 minutes at approximately 12,000 rpm at 4° C. to collect plasma. Lungs were padded dry, weighed, and homogenized at a dilution of 1:3 in sterile water. Plasma and lung levels of test compound were determined by LC-MS analysis against analytical standards constructed into a standard curve in the test matrix. A lung to plasma ratio was determined as the ratio of the lung AUC in μg hr/g to the plasma AUC in μg hr/mL, where AUC is conventionally defined as the area under the curve of test compound concentration vs. time.

[4] = Dynamic moisture sorption assessment; type: physicochemical
Experimental: Dynamic moisture sorption (DMS) measurement was performed using a VTI atmospheric microbalance, SGA-100 system (VTI Corp., Hialeah, Fla. 33016). A weighed sample was used and the humidity was lowest possible value (close to 0% RH) at the start of the analysis. The DMS analysis consisted of an initial drying step (˜0% RH) for 120 minutes, followed by two cycles of sorption and desorption with a scan rate of 5% RH/step over the humidity range of 5% RH to 90% RH. The DMS run was performed isothermally at 25° C.

In the case of `CCc1cc(O)c(F)cc1-c1ccc2c(-c3nc4c([nH]3)CCN(C3CN(CCOC)C3)C4)n[nH]c2c1` [Example 1-6], the “BEAS-2B pIC50” value [1] is reported as “A (A represents a pIC50 value≥8 (IC50≤10 nM))”.

For `CCc1cc(O)c(F)cc1-c1ccc2c(-c3nc4c([nH]3)CCN(C3CN(CCC#N)C3)C4)n[nH]c2c1` [Example 1-8], the “BEAS-2B pIC50” value [1] was “A (A represents a pIC50 value≥8 (IC50≤10 nM))”.

With `CCc1cc(O)c(F)cc1-c1ccc2c(-c3nc4c([nH]3)CCN(C3CN(C5CCS(=O)(=O)C5)C3)C4)n[nH]c2c1` (stereo not drawn) [Example 1-15] the “pSTAT6 inhibition in the pharmacodynamic assay” value [2] was “exceptions”.

In the case of `CCc1cc(O)c(F)cc1-c1ccc2c(-c3nc4c([nH]3)CCN(CCNC3(C#N)CC3)C4)n[nH]c2c1` [Example 3-1], the “pSTAT6 inhibition in the pharmacodynamic assay” value [2] is reported as “exceptions”.

In the case of `CCc1cc(O)c(F)cc1-c1ccc2c(-c3nc4c([nH]3)CCN(CCNC3CC(OC)C3)C4)n[nH]c2c1` (stereo not drawn) [Example 3-30], the “BEAS-2B pIC50” value [1] is reported as “A (A represents a pIC50 value≥8 (IC50≤10 nM))”.

With `CCc1cc(O)c(F)cc1-c1ccc2c(-c3nc4c([nH]3)CCN(CCN(C)CC(C)C)C4)n[nH]c2c1` [Example 3-33] the “Lung to Plasma ratio Assay 4” value [3] was “A (A denotes a ratio>100)”.

In the case of `CCc1cc(O)c(F)cc1-c1ccc2c(-c3nc4c([nH]3)CCN(CCNC3CC(OC)C3)C4)n[nH]c2c1` (stereo not drawn) [Example 8, 5-Ethyl-2-fluoro-4-(3-(5-(2-((3-methoxycyclobutyl)amino)ethyl)-4,5,6,7-tetrahydro-1H-imidazo[4,5-c]pyridin-2-yl)-1H-indazol-6-yl)phenol], the “Lung to Plasma ratio Assay 4” value [3] is reported as “A (A denotes a ratio>100)”.

For `CCc1cc(O)c(F)cc1-c1ccc2c(-c3nc4c([nH]3)CCN(C[C@@H]3CCCN3C)C4)n[nH]c2c1` [Example 11, (S)-5-ethyl-2-fluoro-4-(3-(5-((1-methylpyrrolidin-2-yl)methyl)-4,5,6,7-tetrahydro-1H-imidazo[4,5-c]pyridin-2-yl)-1H-indazol-6-yl)phenol], the “Lung to Plasma ratio Assay 4” value [3] was “A (A denotes a ratio>100)”.

In the case of `CCc1cc(O)c(F)cc1-c1ccc2c(-c3nc4c([nH]3)CCN(C[C@H]3COCCN3)C4)n[nH]c2c1` [Example 13, (S)-5-Ethyl-2-fluoro-4-(3-(5-(morpholin-3-ylmethyl)-4,5,6,7-tetrahydro-1H-imidazo[4,5-c]pyridin-2-yl)-1H-indazol-6-yl)phenol], the “Lung to Plasma ratio Assay 4” value [3] is reported as “A (A denotes a ratio>100)”.

For `CCc1cc(O)c(F)cc1-c1ccc2c(-c3nc4c([nH]3)CCN(C[C@@H]3COCCN3)C4)n[nH]c2c1` [Example 14, (R)-5-Ethyl-2-fluoro-4-(3-(5-(morpholin-3-ylmethyl)-4,5,6,7-tetrahydro-1H-imidazo[4,5-c]pyridin-2-yl)-1H-indazol-6-yl)phenol], the “Lung to Plasma ratio Assay 4” value [3] was “A (A denotes a ratio>100)”.

In the case of `CCc1cc(O)c(F)cc1-c1ccc2c(-c3nc4c([nH]3)CCN(CC3CNC3)C4)n[nH]c2c1` [Example 14-7], the “Lung to Plasma ratio Assay 4” value [3] is reported as “A (A denotes a ratio>100)”.

With `CCc1cc(O)c(F)cc1-c1ccc2c(-c3nc4c([nH]3)CCN(CCN3CCC[C@@H]3C)C4)n[nH]c2c1` [Example 15, (S)-5-ethyl-2-fluoro-4-(3-(5-(2-(2-methylpyrrolidin-1-yl)ethyl)-4,5,6,7-tetrahydro-1H-imidazo[4,5-c]pyridin-2-yl)-1H-indazol-6-yl)phenol] the “Lung to Plasma ratio Assay 4” value [3] was “A (A denotes a ratio>100)”.

In the case of `CCc1cc(O)c(F)cc1-c1ccc2c(-c3nc4c([nH]3)CCN(C3CC(C)C3)C4)n[nH]c2c1` (stereo not drawn) [Example C-1, 5-Ethyl-2-fluoro-4-(3-(5-(3-methylcyclobutyl)-4,5,6,7-tetrahydro-1H-imidazo[4,5-c]pyridin-2-yl)-1H-indazol-6-yl)phenol], the “lung concentration smaller than that of the corresponding compound of the invention by a factor” value (shortened to “lung concentration smaller than that”) [2] is reported as 36.

For `CCc1cc(O)c(F)cc1-c1ccc2c(-c3nc4c([nH]3)CCN(CCC(C)C)C4)n[nH]c2c1` [Example C-2, reference compound], the “fold less potent than the corresponding compound of the invention in the BEAS-2B cellular assay” value [1] was 6 fold and the “lung concentration smaller than that” value [2] was 52.

For `CCc1cc(O)c(F)cc1-c1ccc2c(-c3nc4c([nH]3)CCN(CC3CCCOC3)C4)n[nH]c2c1` (stereo not drawn) [Example C-3, reference compound], the “fold less potent than the corresponding compound of the invention in the BEAS-2B cellular assay” value [1] was 3 fold and the “lung concentration smaller than that” value [2] was 13.

In the case of `CCc1cc(O)c(F)cc1-c1ccc2c(-c3nc4c([nH]3)CCN(C3CCC(C)CC3)C4)n[nH]c2c1` (stereo not drawn) [Example C-4, reference compound], the “fold less potent than the corresponding compound of the invention in the BEAS-2B cellular assay” value [1] is reported as 6 fold and the “lung concentration smaller than that” value [2] is reported as 23.

With `CCc1cc(O)c(F)cc1-c1ccc2c(-c3nc4c([nH]3)CCN(C3CCN(C)CC3)C4)n[nH]c2c1` [crystalline hydrate, Crystalline hydrate of 5-ethyl-2-fluoro-4-(3-(5-(1-methylpiperidin-4-yl)-4,5,6,7-tetrahydro-1H-imidazo[4,5-c]pyridin-2-yl)-1H-indazol-6-yl)phenol] the weight gain ([4]; humidity range of 5% to 90% relative humidity, 25° C) was “less than 0.12%” and the hygroscopicity ([4]; two cycles of sorption and desorption, 5% to 90% RH) was “non-hygroscopic”.
